Measured values as given in patent publication US6841684B2, “Imidiazoles having reduced side effects” (Allergan, Inc., priority 1997, dated 2005).
Marks after values point to notes of the source that are not given here.

What was measured:
[1] = target: T1, rat α2B (RNG gene) receptor (Rattus norvegicus, UniProt P19328); assay: RSAT (Receptor Selection and Amplification Technology) assay, alpha 2B; type: cell-based; details: ratio of maximal effect to that of standard full agonist oxymetazoline
T1 construct: expressed in transfected cells; host or cells: NIH-3T3 cells, calcium phosphate cotransfection
T1 sequence (P19328 1-453): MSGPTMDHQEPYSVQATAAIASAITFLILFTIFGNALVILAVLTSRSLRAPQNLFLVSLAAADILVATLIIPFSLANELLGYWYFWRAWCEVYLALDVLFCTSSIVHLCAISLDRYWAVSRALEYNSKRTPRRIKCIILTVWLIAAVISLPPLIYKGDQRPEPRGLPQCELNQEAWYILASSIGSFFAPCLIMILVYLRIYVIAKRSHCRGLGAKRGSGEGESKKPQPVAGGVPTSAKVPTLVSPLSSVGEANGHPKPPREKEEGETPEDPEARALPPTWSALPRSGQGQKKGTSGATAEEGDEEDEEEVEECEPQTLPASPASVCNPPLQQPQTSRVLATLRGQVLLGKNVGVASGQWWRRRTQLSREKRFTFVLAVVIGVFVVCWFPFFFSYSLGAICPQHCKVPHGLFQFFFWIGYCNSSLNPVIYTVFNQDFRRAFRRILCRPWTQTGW
Outline: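 NIH-3T3 cells transiently cotransfected with receptor, hybrid Gq/i5 protein and β-galactosidase marker were incubated with compound dilutions in triplicate for 72-96 hr at 37°. Proliferation was read as β-galactosidase activity (o-nitrophenyl-β-D-galactopyranoside, overnight at 30°, OD 420 nm). EC50 and efficacy were derived, the latter relative to a standard full agonist's maximal effect.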

[2] = test system: conscious cynomolgus monkeys; assay: Sedation score during the IOP experiments; type: in vivo, cynomolgus monkey; parameters: key to Sedation (0-4): 0=alert, typical vocalization, movement, etc.; 1=calm, less movement; 2=slightly sedated, some vocalization, responsive to stimulation; 3=sedated, no vocalization, some response to stimulation; 4=asleep
Protocol: At the same time, sedation was measured and assessed according to the following score: 0=alert, typical vocalization, movement, etc.; 1=calm, less movement; 2=slightly sedated, some vocalization, responsive to stimulation; 3=sedated, no vocalization, some response to stimulation; 4=asleep.

[3] = test system: rat retinal ganglion cells after optic nerve injury; assay: Calibrated rat optic nerve injury model, retinal ganglion cell numbers; type: in vivo
From the text: These models include light-induced photoreceptor degeneration in albino rat, as described in Wen et al, “Alpha2-adrenergic agonists induce basic fibroblast growth factor expression in photoreceptors in vivo and ameliorate light damage.” J. Neurosci. […] Invest. Ophthalmol. Vis. Sci. 37, 540,S114. […] Additionally commonly assigned and co-pending application, 08/496,292 filed on 28 Jun.

[4] = test system: cynomolgus monkeys with sustained elevated IOP; assay: IOP lowering in conscious monkeys, eyes made hypertensive by argon laser photocoagulation; type: in vivo, cynomolgus monkey; details: Macaca fascicularis, topical, 6 h, single 50 μl eye drop, up to 6 hours, read-out: Maximum % Decrease From Pretreatment Levels Hypertensive Eye (IOP); for inhibition in vivo at 0.3 %: ocular dose 0.3%
From the text: Measurements of IOP were made in fully conscious female cynomolgus monkeys weighing 3-4 kg with sustained elevated IOP that was produced in the right eye by argon laser photocoagulation of the trabecular meshwork. Animals were usable for experiments 2 months following surgery. During the experiments, monkeys sat in specially designed chairs (Primate Products, San Francisco), and were fed orange juice and fruit as needed. A 30R model Digilab pneumatonometer (Alcon, Tex.) was used to measure IOP.
Twenty five μl of an anesthetic (proparacaine) was topically applied to each monkey before IOP measurements to minimize ocular discomfort due to tonometry. Two baseline measurements were made prior to instillation of the drugs, followed by periodic measurements up to 6 hours post-instillation. The test compounds were administered unilaterally as a single 50 μl eye drop; the contralateral eyes received an equal volume of saline.

[5] = test system: conscious cynomolgus monkeys; assay: Cardiovascular side effects (blood pressure, heart rate) after i.v. administration; type: in vivo, cynomolgus monkey; details: up to 6 hours, + with * = increase from base levels
From the text: Cardiovascular measurements were made in a different group of monkeys using a BP 100S automated sphygmomanometer (Nippon Colin,. Japan).

[6] = test system: rats with ligation of two spinal nerves; assay: Spinal nerve ligation model of neuropathic pain, reversal of tactile allodynia; type: in vivo, rat; details: 30 minutes after dosing
From the text: (§1) Alleviation of pain including neuropathic pain is another example of a disorder in which the compounds of the invention are useful and advantageous since pain is alleviated without undesirable side effects. […] (See, for example, Kim, S. and Chung, J. “An experimental model for peripheral neuropathy produced by segmental spinal nerve ligation in the rat.” Pain 50 pp. 355-363 (1992).) Following ligation of two spinal nerves, the animals develop a sensitivity to normally non-painful stimuli such as touch. The ability of alpha2 compounds to reverse this sensitivity, called allodynia, was tested 30 minutes after dosing by either intrathecal or intraperitoneal administration. The sedative activity of each compound was also measured using an activity chamber.

rats = assay: Sedative activity measured using an activity chamber; type: in vivo, rat; details: for Sedation (%): 30 minutes after dosing
From the text: as §1

Compound: Cl.O=C1c2ccsc2CCC1Cc1c[nH]cn1 (stereo not shown) [Example B-9b, 5-(1H-imidazol-4(5)-ylmethyl)-6,7-dihydro-5H-benzo[b]thiophen-4-one, hydrogen chloride salt]
- Intrinsic Activity Relative to Oxymetazoline, Alpha 2B [1]: 0.68
- Sedation (0-4) ([2]; ocular dose 0.1%): 0
- Sedation (0-4) ([2]; ocular dose 0.3%): 0
- Retinal Ganglion Cell Numbers at 2 Weeks Post-Injury ([3]; 0.5 mg/kg i.p., vehicle control 33 ± 8): 73 ± 12 cells/microscopic field
- neuroprotection (in words) ([3]; calibrated rat optic nerve injury model): neuroprotective
- inhibition in vivo at 0.1 % ([4]; ocular dose 0.1%): 18.7 ± 5.5%
- inhibition in vivo at 0.3 % [4]: 26.9 ± 6.1%
- Maximum % Decrease From Pretreatment Levels, Heart Rate ([5]; i.v. 500 μg/kg): +20.2 ± 3.4* %
- Maximum % Decrease From Pretreatment Levels, Mean Arterial Blood Pressure ([5]; i.v. 500 μg/kg): 2.8 ± 1.8%

Compound: Clc1cccc(Cl)c1N=C1NCCN1 [clonidine, reference compound]
- sedation (in words) ([2]; ocular administration, monkeys): caused sedation
- Sedation (0-4) ([2]; ocular dose 0.1%): 1
- Sedation (0-4) ([2]; ocular dose 0.3%): 2
- Reversal of Tactile Allodynia (%) ([6]; intrathecal 0.1 μg): 20* %
- Reversal of Tactile Allodynia (%) ([6]; intrathecal 1 μg): 96* %
- Sedation (%) (rats; intrathecal 1 μg): 15%
- Sedation (%) (rats; intrathecal 10 μg): 60* %
- sedation (in words) (rats; intrathecal or intraperitoneal, rats): cause sedation at doses only slightly higher than their anti-allodynic doses
- inhibition in vivo at 0.3 % [4]: 41 ± 5%
- Maximum % Decrease From Pretreatment Levels, Heart Rate ([5]; i.v. 17 μg/kg): 32 ± 4%
- Maximum % Decrease From Pretreatment Levels, Mean Arterial Blood Pressure ([5]; i.v. 17 μg/kg): 29 ± 7%
- Maximum % Decrease From Pretreatment Levels, Heart Rate ([5]; i.v. 50 μg/kg): 50 ± 5%
- Maximum % Decrease From Pretreatment Levels, Mean Arterial Blood Pressure ([5]; i.v. 50 μg/kg): 35 ± 5%
